Data: patent US7893069B2, “Substituted imidazo[2,1-b]thiazole compounds and uses thereof” (Gruenenthal GmbH, priority 2006, dated 2011)

What was measured:
mGluR5 receptor (pig) = target: T1, mGluR5 receptor (pig) (Sus scrofa, UniProt I3LUI7); assay: [3H]-MPEP binding assay, pig brain homogenate; conditions: displacement of 5 nM [3H]-MPEP, 450 μg protein from pig brain homogenate, 60 min, room temperature; read-out: IC50 [3H]-MPEP bond mGluR5 receptor (pig)
T1 construct: 450 μg protein from brain homogenate is incubated with 5 nM; from tissue; host or cells: pig brain halves without medulla, cerebellum and pons; homogenate, differential centrifugation
T1 sequence (I3LUI7 19-1212): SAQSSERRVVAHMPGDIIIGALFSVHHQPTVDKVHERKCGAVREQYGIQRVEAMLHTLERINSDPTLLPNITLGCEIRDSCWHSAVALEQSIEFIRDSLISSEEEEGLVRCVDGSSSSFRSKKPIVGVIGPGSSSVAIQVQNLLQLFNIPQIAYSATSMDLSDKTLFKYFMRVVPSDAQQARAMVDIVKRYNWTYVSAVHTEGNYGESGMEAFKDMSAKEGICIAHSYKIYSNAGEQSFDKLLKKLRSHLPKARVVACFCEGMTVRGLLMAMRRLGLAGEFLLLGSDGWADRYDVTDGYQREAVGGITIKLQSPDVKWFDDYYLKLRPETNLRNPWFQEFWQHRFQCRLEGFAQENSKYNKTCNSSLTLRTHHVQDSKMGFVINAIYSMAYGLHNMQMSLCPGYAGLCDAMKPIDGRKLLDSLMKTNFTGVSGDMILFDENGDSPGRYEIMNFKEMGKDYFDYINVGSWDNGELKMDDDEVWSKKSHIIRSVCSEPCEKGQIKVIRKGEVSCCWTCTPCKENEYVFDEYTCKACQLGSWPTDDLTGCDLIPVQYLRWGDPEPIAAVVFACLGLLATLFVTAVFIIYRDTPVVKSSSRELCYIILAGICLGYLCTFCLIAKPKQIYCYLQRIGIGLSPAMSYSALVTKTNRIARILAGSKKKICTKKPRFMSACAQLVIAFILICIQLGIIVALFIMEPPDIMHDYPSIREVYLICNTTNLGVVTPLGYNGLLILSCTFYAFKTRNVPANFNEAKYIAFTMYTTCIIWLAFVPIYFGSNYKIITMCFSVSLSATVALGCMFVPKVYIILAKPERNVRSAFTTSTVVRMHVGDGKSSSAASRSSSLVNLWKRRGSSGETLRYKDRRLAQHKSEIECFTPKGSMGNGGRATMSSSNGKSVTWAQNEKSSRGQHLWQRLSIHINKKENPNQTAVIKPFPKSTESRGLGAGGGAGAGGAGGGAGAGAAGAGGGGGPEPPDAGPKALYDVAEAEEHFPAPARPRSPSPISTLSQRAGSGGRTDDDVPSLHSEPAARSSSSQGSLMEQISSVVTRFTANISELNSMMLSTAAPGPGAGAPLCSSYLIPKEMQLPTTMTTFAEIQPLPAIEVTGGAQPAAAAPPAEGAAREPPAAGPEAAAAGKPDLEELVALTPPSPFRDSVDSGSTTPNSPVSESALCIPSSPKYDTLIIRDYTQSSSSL
Experimental: Substituted imidazo[2,1-b]thiazole compounds corresponding to the foregoing formula I are likewise particularly preferred, which, after 60 minutes of incubation in 450 μg protein from pig brain homogenate at a temperature between 20° C. and 25° C. in a concentration of less than 2500 nM, preferably less than 1000 nM, particularly preferably less than 700 nM, very particularly preferably less than 100 nM, even more preferably less than 70 nM, bring about a 50-percent displacement of [^3H]-2-methyl-6-(3-methoxyphenyl)-ethynylpyridine which is present in a concentration of 5 nM. The determination of the displacement of [^3H]-2-methyl-6-(3-methoxyphenyl)-ethynyl-pyridine is performed as described hereinafter in the section Pharmacological Methods, I. Method for determining the inhibition of [^3H]-MPEP-bonding in the mGluR5 receptor bonding assay.
1. Method for Determining the Affinity to the mGluR5 Receptor
Pig brain homogenate is produced by homogenization (Polytron PT 3000, Kinematica AG, 10,000 rpm for 90 seconds) of pig brain halves without medulla, cerebellum and pons in buffer pH 8.0 (30 mM Hepes, Sigma, order no. H3375+1 tablet complete to 100 ml, Roche Diagnostics, order no. 1836145) in ratio 1:20 (brain weight/volume) and differential centrifugation at 900×g and 40,000×g. In each case, 450 μg protein from brain homogenate is incubated with 5 nM ^3-[H]-MPEP (Tocris, order no. R1212) (MPEP=2-methyl-6-(3-methoxyphenyl)-ethynylpyridine) in 250 μl incubation batches in 96 well microtitration plates and the compounds to be tested (10 μM in the test) in buffer (as above) at room temperature for 60 min.
Thereafter, the batches are filtered with the help of a Brandel Cell Harvester (Brandel, TYP Robotic 9600) on unifilter plates with glass fibre filter mats (Perkin Elmer, order no. 6005177) and subsequently washed with buffer (as above) 3 times with in each case 250 μl per sample. The filter plates are subsequently dried for 60 min at 55° C. 30 μL Ultima Gold™ scintillator is subsequently added per well (Packard BioScience, order no. 6013159) and the samples are measured after 3 hours on the β-counter (Mikrobeta, Perkin Elmer). The unspecific bond is determined by addition of 10 μM MPEP (Tocris, order no. 1212).

mGluR5 receptor (human) = target: T2, mGluR5 receptor (human) (Homo sapiens, UniProt P41594); assay: Functional Ca2+ influx assay in CHO-hmGluR5 cells (DHPG-stimulated, FLIPR); assay type: cell-based; conditions: 10 μM DHPG, Ki=IC50/(1+AGConc./EC50)
T2 construct: host or cells: CHO-hmGluR5 cells (purchased cell line; incubated overnight with doxycycline)
T2 sequence (P41594 21-1212): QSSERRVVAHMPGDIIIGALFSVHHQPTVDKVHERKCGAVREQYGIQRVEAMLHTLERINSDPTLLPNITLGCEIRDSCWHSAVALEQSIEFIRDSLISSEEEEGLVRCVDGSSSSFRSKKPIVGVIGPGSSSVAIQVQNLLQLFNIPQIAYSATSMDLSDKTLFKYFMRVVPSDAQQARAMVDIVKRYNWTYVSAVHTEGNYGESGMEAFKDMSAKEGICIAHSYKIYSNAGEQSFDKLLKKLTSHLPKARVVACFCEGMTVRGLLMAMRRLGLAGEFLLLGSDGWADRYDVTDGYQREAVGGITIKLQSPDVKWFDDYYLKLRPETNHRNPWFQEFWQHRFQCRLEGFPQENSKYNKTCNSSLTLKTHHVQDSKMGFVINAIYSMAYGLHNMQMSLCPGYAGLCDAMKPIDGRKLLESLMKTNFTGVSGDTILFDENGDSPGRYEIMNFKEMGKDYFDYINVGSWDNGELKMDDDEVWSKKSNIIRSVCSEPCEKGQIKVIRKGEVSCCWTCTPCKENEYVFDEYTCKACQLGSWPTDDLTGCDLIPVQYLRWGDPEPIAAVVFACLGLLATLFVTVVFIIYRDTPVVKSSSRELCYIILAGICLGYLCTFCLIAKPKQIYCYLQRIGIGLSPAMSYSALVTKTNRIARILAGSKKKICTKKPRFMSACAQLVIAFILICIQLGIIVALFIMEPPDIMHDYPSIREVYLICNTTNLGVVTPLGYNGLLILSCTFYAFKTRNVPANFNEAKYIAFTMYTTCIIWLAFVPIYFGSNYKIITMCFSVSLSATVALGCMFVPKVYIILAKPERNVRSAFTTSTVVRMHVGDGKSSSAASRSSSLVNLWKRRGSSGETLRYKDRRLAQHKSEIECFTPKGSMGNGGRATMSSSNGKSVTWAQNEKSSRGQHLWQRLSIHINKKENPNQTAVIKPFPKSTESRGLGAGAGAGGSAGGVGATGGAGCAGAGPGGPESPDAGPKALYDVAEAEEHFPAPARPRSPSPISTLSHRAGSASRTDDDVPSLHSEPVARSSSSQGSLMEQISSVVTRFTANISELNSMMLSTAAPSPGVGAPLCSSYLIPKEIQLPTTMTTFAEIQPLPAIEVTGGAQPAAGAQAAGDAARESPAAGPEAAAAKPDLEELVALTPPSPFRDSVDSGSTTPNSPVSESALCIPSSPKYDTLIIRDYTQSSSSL
Experimental: The data is analyzed by means of a 1-factorial ANOVA (comparison of treatment groups versus vehicle group). The significance level is set at p<0.05. All the groups have a size of N=10. The test is also described in Hogg, S. (1996) “A review of the validity and variability of the elevated plus-maze as an animal model of anxiety,” Pharmacol. Biochem. Behav. 54, 21-30, and in Rodgers, R. J., Cole, J. C. (1994) “The elevated plus-maze: pharmacology, methodology and ethology,” in Cooper, S. J., Hendrie, C. A. (eds.) Ethology and Psychopharmacology. Wiley & Sons; pp. 9-44. 5. Description of the Functional Ca^2+ Influx Assay […]
After recording the fluorescence base line for 10 sec., 50 μl test substance solution (various test substance concentrations in HBSS buffer with 1% DMSO and 0.02% Tween 20, Sigma) is added and the fluorescence signal is measured for 6 min. 50 μl DHPG solution ((S)-3,5-dihydroxyphenylglycine, Tocris Biotrend Chemikalien GmbH, Cologne, Germany, final DHPG concentration: 10 μM) is subsequently added and the inflow of Ca^2+ is simultaneously measured for 60 sec. […] The data is analysed with Microsoft Excel and GraphPad Prism. The dose-effect curves are calculated with non-linear regression and IC50 values determined. Each data point is determined 3 times and IC50 values are averaged from a minimum of 2 independent measurements. […]

rat = assay: Formalin test in rats (phase 2, chronic pain component); assay type: in vivo; conditions: p.o., 10 mg/kg, administered 30 min before formalin
Experimental: 2a. Formalin Test in Rats The formalin test (Dubuisson, D. and Dennis, S. G., 1977, Pain, 4, 161-174) represents a model for acute and chronic pain. A biphasic nociceptive reaction, which is recorded by observation of three clearly differentiable behavioural patterns, is induced by a single formalin injection into the dorsal side of a rear paw in freely mobile test animals. The reaction has two phases: Phase 1=Immediate reaction (duration up to 10 min; paw shaking, licking), Phase 2=Late reaction (after a rest phase; likewise, paw shaking, licking; duration up to 60 min). The 1st phase reflects a direct stimulation of the peripheral nocisensors with high spinal nociceptive input or glutamate release (acute pain phase); the 2nd phase reflects a spinal and peripheral hypersensitisation (chronic pain phase). In the investigations presented here, the chronic pain component (phase 2) was evaluated. Formalin with a volume of 50 μl and a concentration of 5% is administered subcutaneously into the dorsal side of the right rear paw of each animal. The substances to be tested are administered 30 min before the formalin injection orally (p.o), intravenously (i.v.) or intraperitoneally (i.p.). The specific changes in behavior such as lifting and shaking the paw, shifts in weight of the animal as well as biting and licking reactions are observed and registered in the period of observation from 21 to 27 min after formalin injection. The various forms of behavior are summarized in the so-called pain rate (PR), which, relative to the sub-intervals of 3 min, represents the calculation of an average nociception reaction. […] The group size is 10 animals (n=10). 2b. Formalin Test in Mice

IC50 (mGluR5 receptor (pig)) | Ki (mGluR5 receptor (human)) | SMILES | Formalin test (rat) p.o. Reduction in the nociceptive behavior over controls at 10 mg/kg (rat)
5.5 nM | 0.31 nM | Cc1cn2c(NC(C)(C)C)c(-c3ccc(C#Cc4ccccn4)s3)nc2s1 [Example 4, N-tert-butyl-2-methyl-6-(5-(pyridine-2-ylethynyl)thiophene-2-yl)imidazo[2,1-b]thiazole-5-amine] | 62%
3 nM | 0.26 nM | CC(C)(C)Nc1c(-c2ccc(C#Cc3ccncc3)s2)nc2sccn12 [Example 7, N-tert-butyl-6-(5-(pyridine-4-ylethinyl)thiophene-2-yl)imidazo[2,1-b]thiazole-5-amine] | 
